Test results from US20170239323A1, “ORITAVANCIN FORMULATIONS” (The Medicines Company, priority 2016, published 2017).

What was measured:
[1] = Dilution in Hank's Balanced Salt Solution (HBSS, plasma surrogate): pH and visual observations; assay type: physicochemical; details: for time at which oritavancin started to fall out of solution: repeat with material 24 hours after reconstitution
Experimental: Reconstituting Orbactiv 400 mg (Oritavancin) in 20% w/v aqueous HPCD then diluting in Hank's Balanced Salt Solution (HBSS). 2.641 g of HPCD was dissolved in 13.205 mL of water to make a 20% w/v solution (pH=6.70). Eight (8) mL of the 20% w/v solution was added to a 400 mg vial of Orbactiv for a target oritavancin concentration of 50 mg/mL. […] A 1.5 mL aliquot of 50 mg/mL was removed from the vial and placed in a small glass vial and pH measured. Diluted 2 mL of 50 mg/mL oritavancin solution in 8 mL of HBSS. Visual observations and pH were recorded. (Table 12).
HBSS was used as a plasma surrogate in this experiment. Oritavancin at either 5 or 10 mg/mL precipitated from solution at 2 hours in HBSS. This experiment was repeated with the same material 24 hours later and observed over shorter time intervals. Diluted […] in a small glass vial to make a 10 mg/mL solution. Diluted […] in a small glass vial to make a 5 mg/mL solution. Solutions were observed and pH was tested every 0.25 hrs. (Table 14, Table 15).

[2] = Reconstituted oritavancin/HPCD solution diluted in 0.9% saline: pH and observation for precipitation; assay type: physicochemical; details: for pH: RT
[3] = radiolabeled PK study ADME-rpt-7-053r95; cited from earlier work
[4] = Table 12: 20% w/v HPCD reconstitution diluted in HBSS: oritavancin 10 mg/mL, HPCD 4% w/v, 0 hr
[5] = Table 12: 20% w/v HPCD reconstitution diluted in HBSS: oritavancin 10 mg/mL, HPCD 4% w/v, 0.5 hr
[6] = Table 12: 20% w/v HPCD reconstitution diluted in HBSS: oritavancin 10 mg/mL, HPCD 4% w/v, 1 hr
[7] = Table 12: 20% w/v HPCD reconstitution diluted in HBSS: oritavancin 10 mg/mL, HPCD 4% w/v, 2 hr
[8] = Table 14: repeat with 24-hour-old 20% w/v HPCD reconstitution diluted in HBSS: oritavancin 10 mg/mL, HPCD 2% w/v, 0 hr
[9] = Table 14: repeat with 24-hour-old 20% w/v HPCD reconstitution diluted in HBSS: oritavancin 10 mg/mL, HPCD 2% w/v, 0.25 hr
[10] = Table 15: 24-hour-old 20% w/v HPCD reconstitution diluted in HBSS: oritavancin 5 mg/mL, HPCD 2% w/v, 0 hr
[11] = Table 15: 24-hour-old 20% w/v HPCD reconstitution diluted in HBSS: oritavancin 5 mg/mL, HPCD 2% w/v, 0.25 hr
[12] = Table 15: 24-hour-old 20% w/v HPCD reconstitution diluted in HBSS: oritavancin 5 mg/mL, HPCD 2% w/v, 0.5 hr
[13] = Table 15: 24-hour-old 20% w/v HPCD reconstitution diluted in HBSS: oritavancin 5 mg/mL, HPCD 2% w/v, 0.75 hr
[14] = Table 15: 24-hour-old 20% w/v HPCD reconstitution diluted in HBSS: oritavancin 5 mg/mL, HPCD 2% w/v, 1 hr
[15] = 20% w/v HPCD reconstitution diluted to 5 mg/mL in 0.9% saline, rechecked one month later
[16] = 50% HPCD reconstitution diluted to 5 mg/mL in 0.9% saline, rechecked one month later

CN[C@H](CC(C)C)C(=O)N[C@H]1C(=O)N[C@@H](CC(N)=O)C(=O)N[C@H]2C(=O)N[C@H]3C(=O)N[C@H](C(=O)N[C@H](C(=O)O)c4cc(O)cc(O)c4-c4cc3ccc4O)[C@H](O[C@H]3C[C@](C)(N)[C@@H](O)[C@H](C)O3)c3ccc(c(Cl)c3)Oc3cc2cc(c3O[C@@H]2O[C@H](CO)[C@@H](O)[C@H](O)[C@H]2O[C@H]2C[C@](C)(NCc3ccc(-c4ccc(Cl)cc4)cc3)[C@@H](O)[C@H](C)O2)Oc2ccc(cc2Cl)[C@H]1O [Oritavancin]
time at which oritavancin precipitated from solution ([1]; 5 mg/mL in HBSS (20% w/v HPCD reconstitution)): 2 h
time at which oritavancin started to fall out of solution ([1]; 5 mg/mL in HBSS): ~1.5 h
time at which oritavancin precipitated from solution ([1]; 10 mg/mL in HBSS (20% w/v HPCD reconstitution)): 2 h
time at which oritavancin started to fall out of solution ([1]; 10 mg/mL in HBSS): 0.5 h
time for which oritavancin remains in solution ([1]; 20% w/v aqueous HPCD reconstitution diluted into HBSS at 5 mg/mL): at least 1 hour
Observations [1, 4]: Clear, colorless solution
pH [1, 4]: 5.83
Observations [1, 5]: Clear, colorless solution
pH [1, 5]: 5.86
Observations [1, 6]: Clear, colorless solution
pH [1, 6]: 5.87
Observations [1, 7]: Flocculent white precipitate
pH [1, 7]: 5.92
Observations [1, 8]: Clear, colorless solution
pH [1, 8]: 6.19
Observations [1, 9]: Clear, colorless solution
pH [1, 9]: 6.21
pH ([1]; Table 14: repeat with 24-hour-old 20% w/v HPCD reconstitution diluted in HBSS: oritavancin 10 mg/mL, HPCD 2% w/v, 0.5 hr): 6.30
pH ([1]; Table 14: repeat with 24-hour-old 20% w/v HPCD reconstitution diluted in HBSS: oritavancin 10 mg/mL, HPCD 2% w/v, 0.75 hr): 6.33
pH ([1]; Table 14: repeat with 24-hour-old 20% w/v HPCD reconstitution diluted in HBSS: oritavancin 10 mg/mL, HPCD 2% w/v, 1 hr): 6.38
Observations [1, 10]: Clear, colorless solution
pH [1, 10]: 6.39
Observations [1, 11]: Clear, colorless solution
pH [1, 11]: 6.47
Observations [1, 12]: Clear, colorless solution
pH [1, 12]: 6.50
Observations [1, 13]: Clear, colorless solution
pH [1, 13]: 6.59
Observations [1, 14]: Clear, colorless solution
pH [1, 14]: 6.61
pH ([1]; Table 15: 24-hour-old 20% w/v HPCD reconstitution diluted in HBSS: oritavancin 5 mg/mL, HPCD 2% w/v, 1.25 hr): 6.63
pH ([1]; Table 15: 24-hour-old 20% w/v HPCD reconstitution diluted in HBSS: oritavancin 5 mg/mL, HPCD 2% w/v, 1.5 hr): 6.71
pH ([1]; Table 15: 24-hour-old 20% w/v HPCD reconstitution diluted in HBSS: oritavancin 5 mg/mL, HPCD 2% w/v, 1.75 hr): 6.76
pH ([2]; 20% w/v HPCD reconstitution diluted in 0.9% saline: oritavancin 5 mg/mL, HPCD 2% w/v, 0 hr): 4.17
pH ([2]; 20% w/v HPCD reconstitution diluted in 0.9% saline: oritavancin 5 mg/mL, HPCD 2% w/v, 0.08 hr): 4.17
pH ([2]; 20% w/v HPCD reconstitution diluted in 0.9% saline: oritavancin 5 mg/mL, HPCD 2% w/v, 0.5 hr): 4.17
pH ([2]; 20% w/v HPCD reconstitution diluted in 0.9% saline: oritavancin 5 mg/mL, HPCD 2% w/v, 1 hr): 4.17
pH ([2]; 20% w/v HPCD reconstitution diluted in 0.9% saline: oritavancin 5 mg/mL, HPCD 2% w/v, 24 hr): 4.17
pH ([2]; 20% w/v HPCD reconstitution diluted in 0.9% saline: oritavancin 5 mg/mL, HPCD 2% w/v, 720 hr): 4.32
appearance / precipitation ([2]; 20% w/v HPCD reconstitution diluted to 5 mg/mL in 0.9% saline, for 24 hours): remained clear and colorless without any precipitation
appearance [2, 15]: clear and colorless
pH change [2, 15]: increased slightly
appearance / precipitation ([2]; 20% w/v HPCD reconstitution diluted to 6 mg/mL in 0.9% saline): remained clear and colorless without any visible precipitation
time for which no precipitation was observed ([2]; 20% w/v HPCD reconstitution pH adjusted (up to 7), diluted to 5 mg/mL in 0.9% saline): at least 12 hours
appearance ([2]; 20% w/v HPCD reconstitution, diluted to 5 mg/mL in 0.9% saline, pH 6.5 and above, for 24 hours): maintained clear and colorless
appearance / precipitation ([2]; 50% HPCD reconstitution diluted to 5 mg/mL in 0.9% saline, for 24 hours): remained clear and colorless without any precipitation
appearance [2, 16]: clear and colorless
pH change [2, 16]: increased slightly
pH ([2]; 50% w/v HPCD reconstitution diluted in 0.9% saline: oritavancin 5 mg/mL, HPCD 5% w/v, 0 hr): 4.14
pH ([2]; 50% w/v HPCD reconstitution diluted in 0.9% saline: oritavancin 5 mg/mL, HPCD 5% w/v, 0.08 hr): 4.14
pH ([2]; 50% w/v HPCD reconstitution diluted in 0.9% saline: oritavancin 5 mg/mL, HPCD 5% w/v, 0.5 hr): 4.14
pH ([2]; 50% w/v HPCD reconstitution diluted in 0.9% saline: oritavancin 5 mg/mL, HPCD 5% w/v, 1 hr): 4.14
pH ([2]; 50% w/v HPCD reconstitution diluted in 0.9% saline: oritavancin 5 mg/mL, HPCD 5% w/v, 24 hr): 4.15
pH ([2]; 50% w/v HPCD reconstitution diluted in 0.9% saline: oritavancin 5 mg/mL, HPCD 5% w/v, 720 hr): 4.26
time for which no precipitation was observed ([2]; 50% w/v HPCD reconstitution pH adjusted (up to 6.3), diluted to 5 mg/mL in 0.9% saline): at least 1 hour
time for which no precipitation was observed ([2]; 50% w/v HPCD reconstitution pH adjusted (up to 7), diluted to 5 mg/mL in 0.9% saline): at least 12 hours
appearance ([2]; 50% w/v HPCD reconstitution pH adjusted, diluted to 5 mg/mL in 0.9% saline, at 24 hours): Some discoloration
appearance ([2]; pH 5.7): Some discoloration
time for which solution maintains clarity ([2]; pH adjusted to pH 7 in saline using NaOH): at least 12 hours
stability in solution ([2]; reconstituted in 20% or 50% w/v HPCD, diluted into saline at 5 mg/mL): does not fall out of solution for at least one month
plasma AUC relative to whole blood AUC [3]: 1.59 ×
whole blood AUC as percentage of plasma AUC [3]: 62.8%
